Test results: patent publication US7888395B2, “STAT3 phosphorylation inhibitor and notch1 expression inhibitor” (Meiji Dairies Corporation, priority 2004, dated 2011)

What was measured:
Notch1 [1] = assay: Gene expression test, RT-PCR analysis of Notch1; assay type: cell-based, mouse, rat; conditions: treated relative to untreated cells, normalized toward GAPDH
Experimental: (§1) In ethanol, 2,4,4-trimethyl-3-(15-hydroxypentadecyl)-2-cyclohexen-1-one synthesized by the method described in JP-A-2000-297034 was dissolved to give a concentration of 10^−2 M. The solution was added to a culture solution in a desirable concentration to be final dilution of 1 μl/ml. At different times and different periods in cell culture, 2,4,4-trimethyl-3-(15-hydroxypentadecyl)-2-cyclohexen-1-one was added. […] Each experiment was repeated at least three times.
(§2) Protocol was adapted from Grandbarbe et al., Development (2003) 130, 1393-1402. When briefly explained, as described in Tropepe et al., Dev. Biol. (1999) 208, 166-188, primary neurospheres were prepared from telencephalon of wild-type embryo (E14.5) and were maintained as secondary neurospheres by continuous subculture in a serum-free medium (Reynolds and Weiss, Science (1992) 255, […]) containing 10 ng/ml EGF. After propagation for different times, 50 to 100 neurospheres were inoculated to a polyornithine (Sigma)-coated cover slip in the presence of 2 ng/ml EGF and 0.5% FBS and differentiated. […]
(§3) Typical cycle conditions were 94° C. for 30 seconds, 55° C. for 30 seconds, and 72° C. for 30 seconds except for HES-5 whose program was 94° C. for 30 seconds, 63° C. for 30 seconds, and 72° C. for 2 minutes. […] The relative amount of mRNA was quantitatively determined in accordance with BabyImager analysis and NIHimage 1.36.

Notch1 [2] = assay: Notch1 expression in cell strain transformed with Ras; assay type: cell-based, mouse; conditions: fibroblast transformed with Ras, 10^−6M
Experimental: (§4) The fibroblast transformed with Ras was treated with 2,4,4-trimethyl-3-(15-hydroxypentadecyl)-2-cyclohexen-1-one (10^−6M) and then compared with the untreated cell. Non-transformed cell strains (treated and untreated) were used as controls.

[3] = system: 3T3 Ras transformed fibroblast; assay: In vitro test, neoplastic foci of 3T3 Ras transformed fibroblast; assay type: cell-based, mouse; conditions: 10^−6M, compared with untreated cell, FIG. 3
Experimental: When 3T3 Ras transformed fibroblast was cultured in 10% FBS-containing DMEM medium for 3 days, appearance of “foci” is observed as compared with non-transformed cell strains.
Each of 3T3 Ras transformed fibroblast (derived from mouse) or 3T3 fibroblast (derived from mouse) each is cultured at a concentration of 10,000 cell/ml in 10% FBS-containing DMEM medium for 1 day.
Thereafter, each cell is treated with 10^−5M 2,4,4-trimethyl-3-(15-hydroxypentadecyl)-2-cyclohexen-1-one for 6 days.
3T3 Ras transformed fibroblast or 3T3 fibroblast is cultured at a concentration of 10,000 cell/ml in 5% FBS-containing DMEM medium which contains 0.625% agar (DIFCO) and 10^−6 M 2,4,4-trimethyl-3-(15-hydroxypentadecyl)-2-cyclohexen-1-one.
as §4

STAT3 = assay: Western Blot of STAT3 phosphorylation; assay type: cell-based; conditions: 10^−8 M solution, compared with control without compound, FIG. 2
Experimental: After preparation of 2,4,4-trimethyl-3-(15-hydroxypentadecyl)-2-cyclohexen-1-one solution (10^−8 M), Western Blot was performed using STAT3 and phosphorylated STAT3 antibody (STAT3 antibody derived from rabbit, manufactured by Cell Signaling) to confirm the action of 2,4,4-trimethyl-3-(15-hydroxypentadecyl)-2-cyclohexen-1-one on STAT3 phosphorylation.

[4] = system: Notch receptors (Notch 2 to 4); assay: Gene expression test, RT-PCR analysis of the other Notch receptors; assay type: cell-based, mouse, rat; conditions: treated relative to untreated cells, normalized toward GAPDH
Experimental: as §1, §2, §3

HES5 = assay: Gene expression test, RT-PCR analysis of HES5; assay type: cell-based, mouse, rat; conditions: treated relative to untreated cells, normalized toward GAPDH
Experimental: as §1, §2, §3

[5] = system: 3T3 Ras transformed fibroblast; assay: Ex vivo test, tumor size after injection of 3T3 Ras transformed fibroblast into Swiss Nu/Nu mouse; assay type: in vivo; conditions: cells pretreated 3 days, intraperitoneal on days 2, 8 and 15, FIG. 4
Experimental: In a test tube for 3 days, 3T3 Ras transformed fibroblast (derived from mouse) or 3T3 fibroblast (derived from mouse) was treated with applying 50 μl (10^−3 M) of 2,4,4-trimethyl-3-(15-hydroxypentadecyl)-2-cyclohexen-1-one. The cell ([…]) was again suspended in 400 μl of DMEM medium and 200 μl thereof was injected into 7 weeks-old Swiss Nu/Nu mouse (male) symmetrically. On second, eighth, and fifteenth days after injection, 2,4,4-trimethyl-3-(15-hydroxypentadecyl)-2-cyclohexen-1-one was intraperitoneally administrated into mouse.

Question: Which results are given for `CC1=C(CCCCCCCCCCCCCCCO)C(C)(C)CCC1=O` [2,4,4-trimethyl-3-(15-hydroxypentadecyl)-2-cyclohexen-1-one]?
Answer: levels of mRNA of Notch1 (Notch1 [1]): always decreased; Notch1 expression (Notch1 [2]): decrease; neoplastic foci of the cell strain transformed with Ras [3]: reduced; STAT3 phosphorylation (band of P-STAT3) (STAT3): suppressed; expression levels of the other Notch receptors (Notch 2 to 4) [4]: not changed; levels of mRNA of HES5 (HES5): always decreased; tumor size [5]: reduced
